According to a melting point compilation (Tetko et al.; mined from patent text by program, amines drawn as free bases though some values may be those of a salt):

Row | Structure (SMILES) | melting point [°C]
1 | CC(C)Cn1cc(F)c(=O)[nH]c1=O | 173 to 174
2 | Cc1ccc(C(=O)NC(NC(=O)Nc2ccccc2F)C(Cl)(Cl)Cl)cc1 (centres undefined) | 257 to 259
3 | COc1ccccc1Oc1c(Cl)nc(-c2ccccn2)nc1NS(=O)(=O)c1ccc(C(C)(C)C)cc1 | 122 to 123
4 | O=C(CN1CCN(CCSc2nc3cccc(C(F)(F)F)c3o2)CC1)Nc1c(C(F)(F)F)cc(OCc2ccccc2)cc1C(F)(F)F | 156 to 158
5 | COc1ccc(NS(=O)(=O)c2cccc3ccccc23)cc1OCCc1ccc2ccccc2c1 | 127 to 131
6 | O=C(Oc1ccccc1)OC1C2=C(OCCS2)C(=O)N1c1ccc2ccc(Cl)nc2n1 (centres undefined) | 270
7 | C[C@](N)(CO)CCc1ccc2oc(-c3ccccc3)nc2c1 | 128
8 | Cc1sc(N)nc1-c1ccc(CCN2CCN(c3cccc(C(F)(F)F)c3)CC2)cc1 | 110 to 115
9 | Cc1[nH]c2ccc(F)cc2c1C(=O)NC1CCN(CCc2ccccc2)CC1 | 159 to 162
10 | Cc1c(NC(=O)CC(C)(C)C)c(C)c2c(C)coc2c1Cc1ccc(C(C)C)cc1 | 171 to 172
11 | CCCCCc1ccc(-c2ccc(CCc3ccc(F)cc3)cc2)cc1 | 60
12 | Cc1ccccc1NC(=O)Nc1ccc(CNC(=O)OC(C)(C)C)cc1 | 200 to 202
13 | Fc1ccc(-c2c(-c3ccncc3)nn3nccnc23)cc1 | 177 to 178
14 | O=c1[nH]c2ccc(C(F)(F)F)cc2c2c1c(=O)oc1ccc(Cl)cc12 | > 250
15 | O=C(NCCCCc1cccnc1)c1ccc(-c2cccc(O)c2)cc1 | 150 to 152
16 | Nc1nc(=O)n(C(=O)Nc2cccc(Cl)c2)cc1F | 250 to 252
17 | O=c1ccc2c([N+](=O)[O-])cccc2n1O | 205
18 | O=C1CCCC12CNc1ccc(Cl)cc12 (centres undefined) | 201 to 202
19 | CCCOc1ccc(S(=O)(=O)NC[C@@H](C(=O)NO)N2CCN(S(C)(=O)=O)CC2)cc1 | 137
20 | Cc1nc[nH]c1CSCCN=C(NC#N)NCCO | 146 to 147
21 | CCCCn1ncc(/C=C(\Cc2cc3c(cc2OC)CCO3)C(=O)O)c1-c1ccc(Cl)cc1OCc1ccccc1C(=O)O | 116 to 118
22 | O=C(O)C1=Cc2cc(Cl)ccc2NC1C(F)(F)F (centres undefined) | 133 to 134
23 | Cc1ccc(C(=O)Nc2ccc(CN3CCN(C)CC3)c(C(F)(F)F)c2)cc1C#Cc1ccc(NC2CC2)nn1 | 68 to 69
24 | CC1OOC2(/C=C\c3ccc(C(F)(F)F)cc3C(F)(F)F)CC1CC(=O)C2C (centres undefined) | 124
25 | CC(C)(C)c1cc(C2CCC3SC2CCC3c2cc(C(C)(C)C)c(O)c(C(C)(C)C)c2)cc(C(C)(C)C)c1O (centres undefined) | 247 to 250

Results, then the compound that gave them:

Row | melting point [°C] | Structure (SMILES)
26 | 212 to 214 | N#CCc1c[nH]c2ccc(NC(N)=S)cc12
27 | 71 to 72 | CCC(O)c1cc2c(cc1C)OCO2 (centres undefined)
28 | 80 | COc1ccc2c(Cl)cc(-n3cccn3)nc2c1
29 | 110 to 111 | CCOCc1cnn2c(-c3cccc(C(F)(F)F)c3)ccnc12
30 | 217 to 218 | CCc1cc2c(-c3ccccc3OC)c(NC(=O)Nc3cc(C)c(OC(C)=O)c(C)c3)cnc2s1
31 | 149 to 150 | COc1ccccc1OCC1NC(C(=O)O)CS1 (centres undefined)
32 | 124 to 125 | CN(C)c1ccc(C=O)c(OCC#N)c1
33 | 108 to 110 | CCOC(=O)c1cc(-c2nnn(C)n2)c(-c2ccc(F)cc2)s1
34 | 119 to 121 | CCOC(=O)C1=C(C)NC(=S)N(C(=O)OCC)C1c1cccc(OCc2ccccc2)c1 (centres undefined)
35 | 123 to 125 | COc1cc(Nc2c(C#N)cnc3cc(SCc4ccccc4)c(OC)cc23)c(Cl)cc1Cl
36 | 186 to 187 | CC(Nc1cc(Br)ccc1OCc1ccccc1)c1ccc(C(=O)O)cc1 (centres undefined)
37 | 124 | COC=C(C(=O)OC)C1(c2ccc(OC)cc2)CC=C2C=CC=C2O1 (centres undefined)
38 | 135 to 137 | CCCCCCC1OC(=O)c2cc(NC(C)=O)ccc21 (centres undefined)
39 | 108 to 109 | C=CCc1cc(C=C2N=C(C)OC2=O)ccc1OC(C)=O
